The values that follow come from ChEMBL document CHEMBL3638637, “Imidazo[1,2-Œ±]pyridine sulfonamides as TRPM8 modulators” (2015).

The target in this test is Transient receptor potential M8 protein (Canis lupus familiaris, UniProt Q1A7N1). As to the kind of experiment: FLIPR Assay: The functional activity of compounds of the formula (I) was determined by measuring changes in intracellular calcium concentration using a Ca2+-sensitive fluorescent dye. The changes in fluorescent signal were monitored by a fluorescence plate reader, either a FLIPR (Molecular Devices) or FDSS (Hamamatsu). Increases in intracellular Ca2+ concentration were readily detected upon activation with icilin.At 24 hrs prior to assay, HEK293 cells stably expressing canine TRPM8 were seeded in culture medium in black wall, clear-base poly-D-lysine coated 384-well plates (BD Biosciences, NJ, USA) and grown overnight in 5% CO2 at 37° C. On assay day, growth media was removed and cells were loaded with Calcium 3 Dye (Molecular Devices) for 35 min at 37° C., under 5% CO2 and then for 25 min at room temperature and atmosphere. It counts as cell-based. (In general: Calcium flux is commonly read through the fluorescence of an indicator in the cells.)
Chain of Transient receptor potential M8 protein (Q1A7N1 whole entry): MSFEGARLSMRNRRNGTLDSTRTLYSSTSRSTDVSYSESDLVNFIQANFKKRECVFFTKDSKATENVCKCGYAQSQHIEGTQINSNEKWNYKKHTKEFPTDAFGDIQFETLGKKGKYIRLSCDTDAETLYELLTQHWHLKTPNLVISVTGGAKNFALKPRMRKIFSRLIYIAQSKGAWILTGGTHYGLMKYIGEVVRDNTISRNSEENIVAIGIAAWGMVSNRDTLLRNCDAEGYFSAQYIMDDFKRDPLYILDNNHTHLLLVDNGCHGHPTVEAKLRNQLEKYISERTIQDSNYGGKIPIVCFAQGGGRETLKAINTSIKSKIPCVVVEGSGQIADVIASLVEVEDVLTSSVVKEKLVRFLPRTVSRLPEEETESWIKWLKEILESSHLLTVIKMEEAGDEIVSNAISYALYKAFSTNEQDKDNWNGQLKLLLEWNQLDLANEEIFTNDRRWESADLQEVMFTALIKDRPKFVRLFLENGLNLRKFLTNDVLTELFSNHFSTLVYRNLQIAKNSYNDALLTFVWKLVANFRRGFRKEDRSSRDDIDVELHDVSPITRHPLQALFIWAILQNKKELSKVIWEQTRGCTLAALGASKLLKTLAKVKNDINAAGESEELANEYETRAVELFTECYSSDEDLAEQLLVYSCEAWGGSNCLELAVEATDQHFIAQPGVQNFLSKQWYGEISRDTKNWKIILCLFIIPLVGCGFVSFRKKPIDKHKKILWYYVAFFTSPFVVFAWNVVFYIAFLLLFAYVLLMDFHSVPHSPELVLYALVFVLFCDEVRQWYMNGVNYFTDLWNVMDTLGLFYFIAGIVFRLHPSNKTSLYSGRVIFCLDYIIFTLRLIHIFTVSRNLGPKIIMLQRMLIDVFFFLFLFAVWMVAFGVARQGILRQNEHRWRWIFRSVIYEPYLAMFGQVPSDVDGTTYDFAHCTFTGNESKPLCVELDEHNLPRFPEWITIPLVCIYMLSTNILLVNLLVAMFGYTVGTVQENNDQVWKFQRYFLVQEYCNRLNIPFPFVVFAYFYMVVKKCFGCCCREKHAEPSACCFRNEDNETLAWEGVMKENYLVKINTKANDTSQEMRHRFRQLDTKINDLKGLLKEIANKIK

Structures are written as SMILES.

The term IC50 denotes the midpoint of a concentration-inhibition curve. Consider `Cc1c(N(Cc2ccc(F)c(C(F)(F)F)c2)S(=O)(=O)c2ccc(C(=O)O)cc2)nc2ccc(Cl)cn12`, for which the IC50 amounted to 34.9 nM.
